# According to patent US20240018161A1, “MODULATORS OF CYSTIC FIBROSIS TRANSMEMBRANE CONDUCTANCE REGULATOR” (VERTEX PHARMACEUTICALS INCORPORATED, priority 2020, published 2024):
# pEC50: −log10 of the molar value. Like-named read-outs stand apart in the source and are kept apart here.
# Biological target: CFTR-mediated chloride transport in human intestinal epithelial enteroid cells (Homo sapiens, UniProt P13569)
# Experiment: Membrane potential dye, Enteroid Assay A
# Type: cell-based
# Details: for pEC50: read-out: Ent. A EC50
# In short: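 Membrane potential dye (20 μM methyl oxonol, with 30 μM CaCCinh-A01 and 30 μM Chicago Sky Blue) loaded 25 min at room temperature into ROCK-inhibitor-seeded human enteroid cells. Chloride-free stimulation buffer triggered transport, followed by 15 min fluorescence. % Activity relative to 3 μM/3 μM/300 nM triple-combination control.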
# [1] = percentage of chloride transport of triple combination control (3 μM N-[(6-amino-2-pyridyl)sulfonyl]-6-(3-fluoro-5-isobutoxy-phenyl)-2-[(4S)-2,2,4-trimethylpyrrolidin-1-yl]pyridine-3-carboxamide based)
# [2] = enteroid cells incubated with test compound 18-24 hours, acute 10 μM forskolin and 300 nM N-[2,4-bis(1,1-dimethylethyl)-5-hydroxyphenyl]-1,4-dihydro-4-oxoquinoline-3-carboxamide
# Sequence of CFTR-mediated chloride transport in human intestinal epithelial enteroid cells (P13569 with tags, fused parts or gaps DEL508-508): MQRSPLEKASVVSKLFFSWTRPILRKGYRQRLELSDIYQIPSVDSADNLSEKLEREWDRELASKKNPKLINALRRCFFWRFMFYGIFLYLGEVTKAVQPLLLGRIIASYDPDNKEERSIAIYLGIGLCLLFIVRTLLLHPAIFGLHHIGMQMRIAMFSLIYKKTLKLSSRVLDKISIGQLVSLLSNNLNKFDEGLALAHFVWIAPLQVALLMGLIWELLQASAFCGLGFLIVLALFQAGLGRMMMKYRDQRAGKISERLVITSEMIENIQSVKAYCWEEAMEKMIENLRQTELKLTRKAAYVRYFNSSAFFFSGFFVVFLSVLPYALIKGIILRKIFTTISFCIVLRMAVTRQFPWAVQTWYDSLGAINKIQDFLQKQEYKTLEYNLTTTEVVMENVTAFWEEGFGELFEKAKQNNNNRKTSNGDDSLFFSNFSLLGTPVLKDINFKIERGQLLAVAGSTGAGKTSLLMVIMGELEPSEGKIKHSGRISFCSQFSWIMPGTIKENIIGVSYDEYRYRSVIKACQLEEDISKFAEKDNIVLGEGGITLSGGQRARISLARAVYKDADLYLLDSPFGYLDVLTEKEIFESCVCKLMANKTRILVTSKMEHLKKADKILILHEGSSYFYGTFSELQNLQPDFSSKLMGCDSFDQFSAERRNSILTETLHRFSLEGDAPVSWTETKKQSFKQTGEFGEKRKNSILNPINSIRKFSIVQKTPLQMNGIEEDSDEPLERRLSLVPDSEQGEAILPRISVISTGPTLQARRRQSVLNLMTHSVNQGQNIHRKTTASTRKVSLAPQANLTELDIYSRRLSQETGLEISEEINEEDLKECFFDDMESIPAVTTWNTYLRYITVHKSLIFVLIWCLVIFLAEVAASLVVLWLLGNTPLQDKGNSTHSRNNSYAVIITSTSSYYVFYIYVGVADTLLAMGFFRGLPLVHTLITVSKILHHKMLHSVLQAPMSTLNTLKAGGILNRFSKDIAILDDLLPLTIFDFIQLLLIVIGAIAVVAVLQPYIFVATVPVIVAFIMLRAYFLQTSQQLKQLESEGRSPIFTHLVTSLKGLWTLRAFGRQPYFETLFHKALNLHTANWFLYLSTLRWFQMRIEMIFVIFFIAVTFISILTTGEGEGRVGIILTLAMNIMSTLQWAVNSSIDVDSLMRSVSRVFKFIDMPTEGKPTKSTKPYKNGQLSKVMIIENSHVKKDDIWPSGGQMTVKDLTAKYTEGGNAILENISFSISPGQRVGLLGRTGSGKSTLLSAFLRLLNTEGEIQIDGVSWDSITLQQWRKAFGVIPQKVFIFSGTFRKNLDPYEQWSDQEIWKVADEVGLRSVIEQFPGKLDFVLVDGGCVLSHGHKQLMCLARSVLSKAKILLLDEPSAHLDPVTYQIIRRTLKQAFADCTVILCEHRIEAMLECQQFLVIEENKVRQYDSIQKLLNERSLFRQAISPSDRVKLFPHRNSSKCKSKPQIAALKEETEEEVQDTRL
Structure (SMILES),Ent. A Max Activity (%) (Enteroid Assay A),pEC50 (Enteroid Assay A),Ent. A Max Activity (%) [1],pEC50 [2]
"Cc1cccc(C)c1-c1cc2nc(n1)NS(=O)(=O)c1cccc(c1)C(=O)N1CCN(C3CCC(F)CC3)C[C@H](C1)O2 (stereo partly drawn) [Compound 40, (16R)-12-(2,6-Dimethylphenyl)-18-(4-fluorocyclohexyl)-15-oxa-8λ^6-thia-1,9,11,18,22-pentaazatetracyclo[14.4.1.13,7.110,14]tricosa-3(23),4,6,10,12,14(22)-hexaene-2,8,8-trione]",+++ (+++ is >600%),> 6.00,,
"Cc1cccc(C)c1-c1cc2nc(n1)NS(=O)(=O)c1cccc(c1)C(=O)N1CCN(C3CCC4(CC3)COC4)C[C@H](C1)O2 [Compound 41, (16R)-12-(2,6-Dimethylphenyl)-18-{2-oxaspiro[3.5]nonan-7-yl}-15-oxa-8λ^6-thia-1,9,11,18,22-pentaazatetracyclo[14.4.1.13,7.110,14]tricosa-3(23),4,6,10,12,14(22)-hexaene-2,8,8-trione]",+++ (+++ is >600%),> 6.00,,
"Cc1cccc(C)c1-c1cc2nc(n1)NS(=O)(=O)c1cccc(c1)C(=O)N1CCNCC(C1)O2 (centres unmarked) [Compound 42, 12-(2,6-Dimethylphenyl)-15-oxa-8λ^6-thia-1,9,11,18,22-pentaazatetracyclo[14.4.1.13,7.110,14]tricosa-3(23),4,6,10(22),11,13-hexaene-2,8,8-trione]",,,++ (++ is 30-60%),
"Cc1cccc(C)c1-c1cc2nc(n1)NS(=O)(=O)c1cccc(c1)C(=O)N1CCN(CC(C)C)CC(C1)O2 (centres unmarked) [Compound 44, 12-(2,6-Dimethylphenyl)-18-isobutyl-8,8-dioxo-15-oxa-8λ^6-thia-1,9,11,18,22-pentazatetracyclo[14.4.1.13,7.110,14]tricosa-3,5,7(23),10(22),11,13-hexaen-2-one]",,,+++ (+++ is >60%),> 6.00
Cc1cccc(C)c1-c1cc2nc(n1)NS(=O)(=O)c1cccc(c1)C(=O)N1CCN(CCC(C)(C)C)CC(C1)O2 (centres unmarked) [Compound 45],,,+++ (+++ is >60%),> 6.00
Cc1cccc(C)c1-c1cc2nc(n1)NS(=O)(=O)c1cccc(c1)C(=O)N1CCN(C3CCC(F)(F)CC3)CC(C1)O2 (centres unmarked) [Compound 46],+++ (+++ is >600%),> 6.00,,
CNc1ccc(CN2CCN3CC(C2)Oc2cc(-c4c(C)cccc4C)nc(n2)NS(=O)(=O)c2cccc(c2)C3=O)cn1 (centres unmarked) [Compound 47],,,+++ (+++ is >60%),4.52 to 5.52
Cc1cccc(C)c1-c1cc2nc(n1)NS(=O)(=O)c1cccc(c1)C(=O)N1CCN(Cc3ccn[nH]3)CC(C1)O2 (centres unmarked) [Compound 48],,,++ (++ is 30-60%),4.52 to 5.52
Cc1cccc(C)c1-c1cc2nc(n1)NS(=O)(=O)c1cccc(c1)C(=O)N1CCN(Cc3ccn(C)n3)CC(C1)O2 (centres unmarked) [Compound 49],,,+++ (+++ is >60%),4.52 to 5.52
Cc1cccc(C)c1-c1cc2nc(n1)NS(=O)(=O)c1cccc(c1)C(=O)N1CCN(Cc3cncn3C)CC(C1)O2 (centres unmarked) [Compound 51],,,+ (+ is <300%),
Cc1cccc(C)c1-c1cc2nc(n1)NS(=O)(=O)c1cccc(c1)C(=O)N1CCN(Cc3nccs3)CC(C1)O2 (centres unmarked) [Compound 52],,,++ (++ is 30-60%),5.52 to 6.00
Cc1cccc(C)c1-c1cc2nc(n1)NS(=O)(=O)c1cccc(c1)C(=O)N1CCN(CC3CCCCC3)CC(C1)O2 (centres unmarked) [Compound 53],,,++ (++ is 30-60%),> 6.00
Cc1cccc(C)c1-c1cc2nc(n1)NS(=O)(=O)c1cccc(c1)C(=O)N1CCN(Cc3ccccc3C#N)CC(C1)O2 (centres unmarked) [Compound 54],,,+++ (+++ is >60%),> 6.00
Cc1cccc(C)c1-c1cc2nc(n1)NS(=O)(=O)c1cccc(c1)C(=O)N1CCN(CC3CCOCC3)CC(C1)O2 (centres unmarked) [Compound 55],,,+++ (+++ is >60%),4.52 to 5.52
Cc1cccc(C)c1-c1cc2nc(n1)NS(=O)(=O)c1cccc(c1)C(=O)N1CCN(CC3(C)COC3)CC(C1)O2 (centres unmarked) [Compound 56],,,++ (++ is 30-60%),4.52 to 5.52
Cc1cccc(C)c1-c1cc2nc(n1)NS(=O)(=O)c1cccc(c1)C(=O)N1CCN(Cc3ccccc3O)CC(C1)O2 (centres unmarked) [Compound 57],,,+++ (+++ is >60%),> 6.00

Structure (SMILES),Ent. A Max Activity (%) (Enteroid Assay A),pEC50 (Enteroid Assay A),Ent. A Max Activity (%) [1],pEC50 [2]
Cc1cccc(C)c1-c1cc2nc(n1)NS(=O)(=O)c1cccc(c1)C(=O)N1CCN(CCC(C)C)CC(C1)O2 (centres unmarked) [Compound 58],,,+++ (+++ is >60%),> 6.00
Cc1cccc(C)c1-c1cc2nc(n1)NS(=O)(=O)c1cccc(c1)C(=O)N1CCN(CC3CC4C=CC3C4)CC(C1)O2 (centres unmarked) [Compound 59],,,+++ (+++ is >60%),> 6.00
Cc1cccc(C)c1-c1cc2nc(n1)NS(=O)(=O)c1cccc(c1)C(=O)N1CCN(CCC3CCOCC3)CC(C1)O2 (centres unmarked) [Compound 60],,,+++ (+++ is >60%),4.52 to 5.52
Cc1cccc(C)c1-c1cc2nc(n1)NS(=O)(=O)c1cccc(c1)C(=O)N1CCN(Cc3sccc3Oc3ccccc3)CC(C1)O2 (centres unmarked) [Compound 61],,,+++ (+++ is >60%),> 6.00
Cc1cccc(C)c1-c1cc2nc(n1)NS(=O)(=O)c1cccc(c1)C(=O)N1CCN(CCC(C)CC(C)(C)C)CC(C1)O2 (centres unmarked) [Compound 62],,,+++ (+++ is >60%),> 6.00
Cc1cccc(C)c1-c1cc2nc(n1)NS(=O)(=O)c1cccc(c1)C(=O)N1CCN(C)CC(C1)O2 (centres unmarked) [Compound 63],,,+++ (+++ is >60%),4.52 to 5.52
"Cc1cccc(C)c1-c1cc2nc(n1)NS(=O)(=O)c1cccc(c1)C(=O)N1CCN(Cc3ccccn3)CC(C1)O2 (centres unmarked) [Compound 64, 12-(2,6-Dimethylphenyl)-18-[(pyridin-2-yl)methyl]-15-oxa-8λ^6-thia-1,9,11,18,22-pentaazatetracyclo[14.4.1.13,7.110,14]tricosa-3(23),4,6,10(22),11,13-hexaene-2,8,8-trione]",,,++ (++ is 30-60%),5.52 to 6.00
"Cc1cccc(C)c1-c1cc2nc(n1)NS(=O)(=O)c1cccc(c1)C(=O)N1CCN(CCCC(C)(C)C)CC(C1)O2 (centres unmarked) [Compound 65, 18-(4,4-Dimethylpentyl)-12-(2,6-dimethylphenyl)-15-oxa-8λ^6-thia-1,9,11,18,22-pentaazatetracyclo[14.4.1.13,7.110,14]tricosa-3(23),4,6,10(22),11,13-hexaene-2,8,8-trione]",,,++ (++ is 30-60%),> 6.00
"Cc1cccc(C)c1-c1cc2nc(n1)NS(=O)(=O)c1cccc(c1)C(=O)N1CCN(Cc3cccnc3)C[C@H](C1)O2 [Compound 66, (36R)-16-(2,6-dimethylphenyl)-34-(pyridin-3-ylmethyl)-2-oxa-6-thia-7-aza-3(6,1)-diazepana-1(4,2)-pyrimidina-5(1,3)-benzenacycloheptaphan-4-one 6,6-dioxide]",,,++ (++ is 30-60%),4.52 to 5.52
"Cc1cccc(C)c1-c1cc2nc(n1)NS(=O)(=O)c1cccc(c1)C(=O)N1CCN(Cc3ccccc3)C[C@H](C1)O2 [Compound 67, (16R)-18-Benzyl-12-(2,6-dimethylphenyl)-15-oxa-8λ^6-thia-1,9,11,18,22-pentaazatetracyclo[14.4.1.13,7.110,14]tricosa-3(23),4,6,10(22),11,13-hexaene-2,8,8-trione]",,,+++ (+++ is >60%),> 6.00
"Cc1cccc(C)c1-c1cc2nc(n1)NS(=O)(=O)c1cccc(c1)C(=O)N1CCN(Cc3ccccc3)C[C@@H](C1)O2 [Compound 68, (16S)-18-benzyl-12-(2,6-dimethylphenyl)-15-oxa-8λ^6-thia-1,9,11,18,22-pentaazatetracyclo[14.4.1.13,7.110,14]tricosa-3(23),4,6,10,12,14(22)-hexaene-2,8,8-trione]",,,+ (+ is <300%),5.52 to 6.00
"CCN1CCN2C[C@@H](C1)Oc1cc(-c3c(C)cccc3C)nc(n1)NS(=O)(=O)c1cccc(c1)C2=O [Compound 74, (16R)-12-(2,6-Dimethylphenyl)-18-ethyl-15-oxa-8λ^6-thia-1,9,11,18,22-pentaazatetracyclo[14.4.1.13,7.110,14]tricosa-3(23),4,6,10,12,14(22)-hexaene-2,8,8-trione]",+++ (+++ is >600%),5.52 to 6.00,,
"Cc1cccc(C)c1-c1cc2nc(n1)NS(=O)(=O)c1cccc(c1)C(=O)N1CCN(C(C)C)C[C@H](C1)O2 [Compound 75, (16R)-12-(2,6-Dimethylphenyl)-18-(propan-2-yl)-15-oxa-8λ^6-thia-1,9,11,18,22-pentaazatetracyclo[14.4.1.13,7.110,14]tricosa-3,5,7(23),10,12,14(22)-hexaene-2,8,8-trione]",+++ (+++ is >600%),> 6.00,,
"Cc1cccc(C)c1-c1cc2nc(n1)NS(=O)(=O)c1cccc(c1)CN1CC(CNCC1=O)O2 (centres unmarked) [Compound 76, 12-(2,6-Dimethylphenyl)-15-oxa-8λ^6-thia-1,9,11,18,22-pentaazatetracyclo[14.4.1.13,7.110,14]tricosa-3(23),4,6,10,12,14(22)-hexaene-8,8,20-trione]",+ (+ is <30%),,,
"Cc1cccc(C)c1-c1cc2nc(n1)NS(=O)(=O)c1cccc(c1)CN1CC(CN(C3CCC(F)(F)CC3)CC1=O)O2 (centres unmarked) [Compound 78, 18-(4,4-Difluorocyclohexyl)-12-(2,6-dimethylphenyl)-15-oxa-8λ^6-thia-1,9,11,18,22-pentaazatetracyclo[14.4.1.13,7.110,14]tricosa-3(23),4,6,10,12,14(22)-hexaene-8,8,20-trione]",++ (++ is 30-60%),> 6.00,,
